Data reported in ChEMBL document CHEMBL5465560, “Selectivity Literature for EUbOPEN Chemogenomic Library” (2024).

Legend:
[1] = target: Serine/threonine-protein kinase MARK2 (Homo sapiens) (UniProt Q7KZI7); assay: Selectivity interaction (KinomeScan (DiscoverX)) EUB0000655a MARK2; conditions: at 10 µM
[2] = target: STE20/SPS1-related proline-alanine-rich protein kinase (Homo sapiens) (UniProt Q9UEW8); assay: Selectivity interaction (Kinase panel (DSF assay)) EUB0001559a STK39
[3] = target: T1, Phosphatidylinositol 4,5-bisphosphate 3-kinase catalytic subunit delta isoform (Homo sapiens) (UniProt O00329); assay: Selectivity interaction (KinomeScan (DiscoverX)) EUB0001079a PIK3CD; conditions: at 1 µM
T1 sequence (whole entry): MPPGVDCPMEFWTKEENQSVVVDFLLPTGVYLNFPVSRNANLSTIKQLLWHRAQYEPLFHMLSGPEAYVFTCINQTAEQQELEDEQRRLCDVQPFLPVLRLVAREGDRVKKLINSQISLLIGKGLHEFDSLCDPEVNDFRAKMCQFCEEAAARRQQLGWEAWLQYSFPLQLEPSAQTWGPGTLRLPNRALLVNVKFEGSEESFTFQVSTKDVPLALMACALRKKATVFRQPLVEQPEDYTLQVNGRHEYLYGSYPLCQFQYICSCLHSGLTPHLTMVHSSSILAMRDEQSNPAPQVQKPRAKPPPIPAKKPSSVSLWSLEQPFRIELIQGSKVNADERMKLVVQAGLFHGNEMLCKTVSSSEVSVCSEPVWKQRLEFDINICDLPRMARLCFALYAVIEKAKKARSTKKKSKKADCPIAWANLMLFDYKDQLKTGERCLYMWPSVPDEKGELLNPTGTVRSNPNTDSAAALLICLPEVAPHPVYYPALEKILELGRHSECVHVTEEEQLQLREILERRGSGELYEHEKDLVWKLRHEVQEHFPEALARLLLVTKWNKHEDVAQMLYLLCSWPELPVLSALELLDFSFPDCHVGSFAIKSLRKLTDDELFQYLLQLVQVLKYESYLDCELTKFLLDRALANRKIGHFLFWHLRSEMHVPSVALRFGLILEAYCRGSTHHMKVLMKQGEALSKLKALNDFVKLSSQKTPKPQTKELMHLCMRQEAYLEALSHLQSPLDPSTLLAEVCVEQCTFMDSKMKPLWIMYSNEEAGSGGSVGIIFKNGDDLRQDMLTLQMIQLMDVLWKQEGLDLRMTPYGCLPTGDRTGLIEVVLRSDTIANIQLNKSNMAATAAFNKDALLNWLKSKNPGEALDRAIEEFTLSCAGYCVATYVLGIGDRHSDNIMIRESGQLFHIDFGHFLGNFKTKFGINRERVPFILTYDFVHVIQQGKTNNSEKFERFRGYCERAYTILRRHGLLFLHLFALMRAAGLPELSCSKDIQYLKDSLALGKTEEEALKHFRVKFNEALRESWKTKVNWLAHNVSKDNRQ

[4] = system: Mast/stem cell growth factor receptor Kit (Homo sapiens), P10721 [D816H]; conditions: at 10 µM
Mast/stem cell growth factor receptor Kit (Homo sapiens), P10721 [D816H], sequence (P10721 whole entry D816H): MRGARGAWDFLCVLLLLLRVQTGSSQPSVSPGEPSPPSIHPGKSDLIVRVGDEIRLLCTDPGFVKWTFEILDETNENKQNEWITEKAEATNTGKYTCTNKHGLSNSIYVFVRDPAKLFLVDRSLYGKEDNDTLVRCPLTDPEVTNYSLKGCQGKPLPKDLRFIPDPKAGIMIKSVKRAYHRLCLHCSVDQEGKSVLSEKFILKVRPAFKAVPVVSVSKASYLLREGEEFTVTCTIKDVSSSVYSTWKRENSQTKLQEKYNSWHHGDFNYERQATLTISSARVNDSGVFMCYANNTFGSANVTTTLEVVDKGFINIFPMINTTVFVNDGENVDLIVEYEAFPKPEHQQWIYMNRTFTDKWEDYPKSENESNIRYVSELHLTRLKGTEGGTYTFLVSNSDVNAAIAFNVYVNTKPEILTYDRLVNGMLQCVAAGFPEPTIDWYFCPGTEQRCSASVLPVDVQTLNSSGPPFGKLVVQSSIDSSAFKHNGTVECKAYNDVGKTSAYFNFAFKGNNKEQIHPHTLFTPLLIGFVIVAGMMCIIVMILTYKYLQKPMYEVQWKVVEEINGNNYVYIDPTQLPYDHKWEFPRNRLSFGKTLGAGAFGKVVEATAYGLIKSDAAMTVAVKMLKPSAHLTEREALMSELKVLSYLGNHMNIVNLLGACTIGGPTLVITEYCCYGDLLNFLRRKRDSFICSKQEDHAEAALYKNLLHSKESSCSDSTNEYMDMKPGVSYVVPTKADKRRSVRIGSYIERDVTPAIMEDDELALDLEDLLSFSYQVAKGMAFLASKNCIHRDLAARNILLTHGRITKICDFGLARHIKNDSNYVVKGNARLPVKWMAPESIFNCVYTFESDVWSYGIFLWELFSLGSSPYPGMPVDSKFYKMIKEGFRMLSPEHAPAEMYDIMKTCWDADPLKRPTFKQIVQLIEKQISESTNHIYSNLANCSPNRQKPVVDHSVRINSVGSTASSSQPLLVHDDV

[5] = target: T2, Serine/threonine-protein kinase BRSK2 (Homo sapiens) (UniProt Q8IWQ3); assay: Selectivity interaction (SelectScreen profiling (Invitrogen)) EUB0000607a BRSK2; conditions: at 2 µM
T2 sequence (whole entry): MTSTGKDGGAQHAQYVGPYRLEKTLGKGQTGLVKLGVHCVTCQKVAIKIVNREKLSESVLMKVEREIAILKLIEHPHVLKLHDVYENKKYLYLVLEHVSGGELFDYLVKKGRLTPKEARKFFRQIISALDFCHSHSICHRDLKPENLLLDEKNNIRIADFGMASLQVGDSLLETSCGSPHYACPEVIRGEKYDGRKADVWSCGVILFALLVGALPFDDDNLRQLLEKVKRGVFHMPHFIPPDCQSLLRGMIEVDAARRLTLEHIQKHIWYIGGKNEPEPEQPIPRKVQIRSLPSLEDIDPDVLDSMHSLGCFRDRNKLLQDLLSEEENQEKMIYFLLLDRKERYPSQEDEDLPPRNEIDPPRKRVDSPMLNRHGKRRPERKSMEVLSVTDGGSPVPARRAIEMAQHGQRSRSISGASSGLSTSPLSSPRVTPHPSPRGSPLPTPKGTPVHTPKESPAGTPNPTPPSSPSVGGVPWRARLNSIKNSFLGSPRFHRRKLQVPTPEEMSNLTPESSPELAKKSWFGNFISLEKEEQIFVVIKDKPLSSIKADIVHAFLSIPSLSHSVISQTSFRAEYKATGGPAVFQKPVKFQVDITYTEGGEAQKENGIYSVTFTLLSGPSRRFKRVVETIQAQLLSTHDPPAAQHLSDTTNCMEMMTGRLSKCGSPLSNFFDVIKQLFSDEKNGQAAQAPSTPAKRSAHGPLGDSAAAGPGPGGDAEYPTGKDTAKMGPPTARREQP

[6] = target: Ribosomal protein S6 kinase alpha-3 (Homo sapiens, UniProt P51812); assay: Selectivity interaction (KinomeScan (DiscoverX)) EUB0000045b RPS6KA3
Ribosomal protein S6 kinase alpha-3, sequence (P51812 whole entry): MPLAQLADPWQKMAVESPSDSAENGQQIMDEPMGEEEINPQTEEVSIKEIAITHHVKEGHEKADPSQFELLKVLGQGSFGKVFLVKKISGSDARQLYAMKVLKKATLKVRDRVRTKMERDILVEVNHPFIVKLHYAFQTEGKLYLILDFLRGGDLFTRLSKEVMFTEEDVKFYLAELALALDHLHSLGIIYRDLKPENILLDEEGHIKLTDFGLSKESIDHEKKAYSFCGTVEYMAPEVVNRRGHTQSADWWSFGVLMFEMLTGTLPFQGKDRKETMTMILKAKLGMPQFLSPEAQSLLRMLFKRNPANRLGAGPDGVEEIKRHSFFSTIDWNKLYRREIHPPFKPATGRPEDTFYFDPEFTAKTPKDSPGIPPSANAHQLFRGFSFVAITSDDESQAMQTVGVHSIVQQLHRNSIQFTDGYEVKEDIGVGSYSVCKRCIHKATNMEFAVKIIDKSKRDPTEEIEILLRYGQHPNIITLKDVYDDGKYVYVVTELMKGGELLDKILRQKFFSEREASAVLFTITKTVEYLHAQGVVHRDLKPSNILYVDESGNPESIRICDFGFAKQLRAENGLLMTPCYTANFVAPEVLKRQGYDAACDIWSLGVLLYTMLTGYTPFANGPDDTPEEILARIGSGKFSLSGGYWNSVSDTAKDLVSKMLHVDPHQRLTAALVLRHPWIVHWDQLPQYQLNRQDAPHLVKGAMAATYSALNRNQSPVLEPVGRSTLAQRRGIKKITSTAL

[7] = target: T3, MAP kinase-activated protein kinase 5 (Homo sapiens) (UniProt Q8IW41); assay: Selectivity interaction (KinomeScan (DiscoverX)) EUB0000618a MAPKAPK5; conditions: at 10 µM
T3 sequence (whole entry): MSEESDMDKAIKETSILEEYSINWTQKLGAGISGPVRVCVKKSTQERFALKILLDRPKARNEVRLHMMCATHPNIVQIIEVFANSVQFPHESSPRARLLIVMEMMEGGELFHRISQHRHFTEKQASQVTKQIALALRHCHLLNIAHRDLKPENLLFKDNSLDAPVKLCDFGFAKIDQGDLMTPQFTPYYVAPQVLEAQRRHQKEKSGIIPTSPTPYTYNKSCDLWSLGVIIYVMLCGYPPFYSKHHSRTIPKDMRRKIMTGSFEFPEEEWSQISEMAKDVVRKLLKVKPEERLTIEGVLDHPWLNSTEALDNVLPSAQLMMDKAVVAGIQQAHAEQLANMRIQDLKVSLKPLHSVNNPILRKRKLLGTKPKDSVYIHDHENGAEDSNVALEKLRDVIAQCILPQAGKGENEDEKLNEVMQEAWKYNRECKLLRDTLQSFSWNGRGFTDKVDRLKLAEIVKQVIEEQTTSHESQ

[8] = target: Tyrosine-protein kinase Fyn (Homo sapiens) (UniProt P06241); assay: Selectivity interaction (ActivX KiNativ screen (ex vivo kinase selectivity in human PBMCs)) EUB0001619a FYN; assay type: cell-based; conditions: PBMC, at 1 µM
Tyrosine-protein kinase Fyn (Homo sapiens), sequence (P06241 2-537 limits assumed): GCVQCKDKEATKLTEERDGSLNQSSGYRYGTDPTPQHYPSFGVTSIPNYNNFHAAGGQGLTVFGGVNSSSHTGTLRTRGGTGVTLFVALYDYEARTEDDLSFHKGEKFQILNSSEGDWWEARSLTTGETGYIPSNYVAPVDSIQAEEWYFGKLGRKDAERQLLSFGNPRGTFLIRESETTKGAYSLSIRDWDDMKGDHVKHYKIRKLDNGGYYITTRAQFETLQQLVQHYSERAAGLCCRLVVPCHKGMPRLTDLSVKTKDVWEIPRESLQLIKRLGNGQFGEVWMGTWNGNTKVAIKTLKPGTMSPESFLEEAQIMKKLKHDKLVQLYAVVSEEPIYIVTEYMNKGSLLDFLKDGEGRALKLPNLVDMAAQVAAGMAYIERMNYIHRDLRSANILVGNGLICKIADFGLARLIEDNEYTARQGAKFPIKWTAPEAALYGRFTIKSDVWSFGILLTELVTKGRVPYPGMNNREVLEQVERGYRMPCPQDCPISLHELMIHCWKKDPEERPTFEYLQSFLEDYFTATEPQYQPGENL

Serine/threonine-protein kinase MARK2 (Homo sapiens), sequence (Q7KZI7 whole entry): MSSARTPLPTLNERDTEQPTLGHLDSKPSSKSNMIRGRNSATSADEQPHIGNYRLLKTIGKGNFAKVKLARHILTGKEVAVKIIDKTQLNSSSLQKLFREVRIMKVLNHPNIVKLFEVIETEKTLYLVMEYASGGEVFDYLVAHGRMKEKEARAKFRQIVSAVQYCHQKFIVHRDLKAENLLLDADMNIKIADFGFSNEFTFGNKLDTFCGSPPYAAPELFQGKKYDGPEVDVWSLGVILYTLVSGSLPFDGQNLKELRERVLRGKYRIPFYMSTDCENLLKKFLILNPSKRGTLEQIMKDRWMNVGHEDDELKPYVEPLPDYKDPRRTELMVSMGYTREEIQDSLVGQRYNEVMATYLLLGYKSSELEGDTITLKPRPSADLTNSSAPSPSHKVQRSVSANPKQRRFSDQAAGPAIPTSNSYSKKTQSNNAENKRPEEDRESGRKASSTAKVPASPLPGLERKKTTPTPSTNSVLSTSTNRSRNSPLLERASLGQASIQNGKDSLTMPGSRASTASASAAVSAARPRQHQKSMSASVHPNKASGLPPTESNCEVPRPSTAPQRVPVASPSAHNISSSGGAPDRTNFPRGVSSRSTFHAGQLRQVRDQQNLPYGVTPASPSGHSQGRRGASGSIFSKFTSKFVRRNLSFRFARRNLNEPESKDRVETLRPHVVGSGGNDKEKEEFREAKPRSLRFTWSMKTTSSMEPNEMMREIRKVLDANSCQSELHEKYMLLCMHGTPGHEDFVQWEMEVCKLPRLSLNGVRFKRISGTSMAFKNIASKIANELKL

## CN(C)CCOc1ccc(-c2nc(-c3ccncc3)c(-c3ccc4c(c3)CC/C4=N\O)[nH]2)cc1
[1]
  % of control: 100%

## CN(C(=O)c1cnn2cccnc12)c1cc2c(cc1N1CCOCC1)C(=O)N(C[C@@H](F)C(C)(C)O)C2
[2]
  dTM: 0.8 K

## Nc1cnc(N2CCc3cc(S(=O)(=O)Nc4c(F)cc(Cl)cc4F)cc(N4CCCC4=O)c32)nc1 [TP-020n]
[3]
  % of control: 88%

## Cc1cc([C@@H](C)Nc2ccccc2C(=O)O)c2nc(N3CCOCC3)cc(=O)n2c1 [AZD-6482]
[4]
  % of control: 88%

## CNC(=O)Nc1ccc(-c2nc(N3CC4CCC(C3)O4)c3cnn(C4CCC5(CC4)OCCO5)c3n2)cc1
[5]
  % of inhibition: 1%

## C=CC(=O)Nc1cc(-n2c(=O)ccc3cnc4ccc(-c5ccc(NS(C)(=O)=O)cc5)cc4c32)ccc1C
[6]; at 1 µM
  % of control: 81%
[6]; at 10 µM
  % of control: 100%

## O[C@H]1CC[C@H](Nc2ncc3nc(Nc4c(F)cc(F)cc4F)n([C@H]4CCOC4)c3n2)CC1
[7]
  % of control: 100%

## N#Cc1cccc(-c2c[nH]c3ncnc(N4CCOCC4)c23)c1
[8]
  % of inhibition: -9%
